# Results taken from BindingDB's records for patent US20250019357 (Tactogen, 2025).
# Legend:
# [1] = biological target: 5-hydroxytryptamine receptor 1B (Homo sapiens, UniProt P28222); test: 5-HT1BR cAMP Secondary Messenger Agonist Assay
# Text: The 5-HT1BR cAMP secondary messenger agonist assay used a panel of CHO-K1 cell lines stably expressing non-tagged GPCRs that endogenously signal through cAMP. Hit Hunter cAMP assays monitored the activation of a GPCR via Gi and Gs secondary messenger signaling in a homogenous, non-imaging assay format using DiscoverX Enzyme Fragment Complementation (EFC) with β-galactosidase as the functional endpoint.
# [2] = biological target: Sodium-dependent serotonin transporter (Homo sapiens, UniProt P31645); test: Human Serotonin Transporter (SERT, SLC6A4) Functional Antagonist Uptake Assay
# Description: (§1) Benzofuran derivatives were evaluated for inhibiting the human 5-HT transporter (hSERT) as expressed in CHO cells using an antagonist radioligand assay (Tatsumi, M. et al. (1999), Eur. J. Pharmacol., 368: 277-283).
# [3] = as above
# Description: as §1
# Chain of Sodium-dependent serotonin transporter (P31645 whole entry): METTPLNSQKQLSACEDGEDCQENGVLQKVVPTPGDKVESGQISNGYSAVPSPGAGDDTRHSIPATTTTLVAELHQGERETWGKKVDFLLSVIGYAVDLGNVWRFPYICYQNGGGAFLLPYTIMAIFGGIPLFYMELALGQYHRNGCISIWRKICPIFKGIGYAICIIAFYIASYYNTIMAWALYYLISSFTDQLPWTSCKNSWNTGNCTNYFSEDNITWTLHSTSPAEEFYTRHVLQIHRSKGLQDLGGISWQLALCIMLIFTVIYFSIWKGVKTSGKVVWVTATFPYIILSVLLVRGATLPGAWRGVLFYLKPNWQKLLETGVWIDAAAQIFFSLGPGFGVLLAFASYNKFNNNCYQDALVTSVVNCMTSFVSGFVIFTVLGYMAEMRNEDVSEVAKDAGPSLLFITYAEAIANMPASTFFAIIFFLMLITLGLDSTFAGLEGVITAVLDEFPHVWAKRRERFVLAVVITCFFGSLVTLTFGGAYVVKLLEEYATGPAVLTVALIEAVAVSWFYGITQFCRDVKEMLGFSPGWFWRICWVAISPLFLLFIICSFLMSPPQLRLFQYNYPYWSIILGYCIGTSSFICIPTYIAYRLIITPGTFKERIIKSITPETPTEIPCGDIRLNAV
# Chain of 5-hydroxytryptamine receptor 1B (P28222 whole entry, the tested form may be a part): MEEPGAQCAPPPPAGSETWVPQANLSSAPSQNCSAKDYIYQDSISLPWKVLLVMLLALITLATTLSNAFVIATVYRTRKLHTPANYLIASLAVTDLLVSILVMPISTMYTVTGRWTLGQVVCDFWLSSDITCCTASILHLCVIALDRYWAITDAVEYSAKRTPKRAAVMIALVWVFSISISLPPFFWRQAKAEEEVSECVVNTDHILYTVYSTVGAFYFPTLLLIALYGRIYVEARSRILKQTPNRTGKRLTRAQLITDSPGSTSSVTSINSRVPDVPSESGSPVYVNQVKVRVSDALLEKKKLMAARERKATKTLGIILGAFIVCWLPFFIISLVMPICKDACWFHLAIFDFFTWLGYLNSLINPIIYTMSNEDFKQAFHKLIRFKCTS
compound,measurement,setting,value
"CNC(C)C(=O)c1ccc2occc2c1 (single isomer, unassigned; form 2) [US20250019357, Compound (+)-BK-5MAPB]",EC50,[1],3070 nM
"CNC(C)C(=O)c1ccc2occc2c1 (single isomer, unassigned; form 1) [US20250019357, Compound (-)-BK-5MAPB]",EC50,[1],77.7 nM
"CNC(C)C(=O)c1ccc2ccoc2c1 (single isomer, unassigned; form 2) [US20250019357, Compound (+)-BK-6MAPB]",EC50,[1],> 10000 nM
"CCC(NC)C(=O)c1ccc2occc2c1 (single isomer, unassigned; form 2) [US20250019357, Compound (-)-BK-5MBPB]",EC50,[1],6610 nM
"CC[C@@H](Cc1ccc2ccoc2c1)NC [US20250019357, Compound S-(+)-6-MBPB]",IC50,[2],2700 nM
same,Ki,[2],1200 nM
"CC[C@H](Cc1ccc2ccoc2c1)NC [US20250019357, Compound R-6-MBPB]",EC50,[3],172 nM
"CCC(NC)C(=O)c1ccc2occc2c1 (single isomer, unassigned; form 1) [US20250019357, Compound (+)-BK-5MBPB]",EC50,[1],> 30000 nM
"CC[C@H](Cc1ccc2ccoc2c1)NC [US20250019357, Compound R-(-)-6-MBPB]",IC50,[2],5700 nM
same,Ki,[2],2600 nM
"CC[C@@H](Cc1ccc2ccoc2c1)NC [US20250019357, Compound S-6-MBPB]",EC50,[3],54.1 nM
